Patent US9828357B2, “Cyclic compounds” (Takeda Pharmaceutical Company Limited, priority 2015, dated 2017)

Assays:
[1] = system: oxaliplatin induced-neuropathic pain model mouse; assay: Analgesic action on oxaliplatin induced-neuropathic pain model mouse; type: in vivo; conditions: C57BL/6N mice, 1 week after oxaliplatin 0.3 mg/kg i.p., mean ± standard error
Method: Oxaliplatin was diluted with saline by the predetermined concentration, and administered intraperitoneally to mice (C57BL/6N, male, 8 weeks old) at 0.3 mg/kg. The test compound was dissolved in 10% captisol or 10% captisol containing 0.1% N-methyl-2-pyrrolidone. The compound was administered intravenously (0.1-10 mg/kg body weight) to the mice immediately before intraperitoneal administration of various anticancer drugs. The pain threshold was measured 1 week after oxaliplatin administration. The pain threshold was evaluated as a weighted value (gram) showing pseudo-escape reaction, when the footpad of the right hind limb was pressed using balance type pressurizing device (Ugo Basile). The values in the table show the mean±standard errors of the weighted values.

TLR4 = molecular target: T1, TLR4 (Mus musculus, UniProt Q9QUK6); assay: Inhibitory effect with respect to NO production (LPS/interferon γ-stimulated RAW264.7); type: cell-based, murine; conditions: RAW264.7 cells, LPS 1.25 ng/mL and mouse interferon γ 0.2 ng/mL, nitrite ion in culture supernatant
T1 construct: endogenous in cells; host or cells: RAW264.7 (murine macrophage cell line)
T1 sequence (Q9QUK6 26-835): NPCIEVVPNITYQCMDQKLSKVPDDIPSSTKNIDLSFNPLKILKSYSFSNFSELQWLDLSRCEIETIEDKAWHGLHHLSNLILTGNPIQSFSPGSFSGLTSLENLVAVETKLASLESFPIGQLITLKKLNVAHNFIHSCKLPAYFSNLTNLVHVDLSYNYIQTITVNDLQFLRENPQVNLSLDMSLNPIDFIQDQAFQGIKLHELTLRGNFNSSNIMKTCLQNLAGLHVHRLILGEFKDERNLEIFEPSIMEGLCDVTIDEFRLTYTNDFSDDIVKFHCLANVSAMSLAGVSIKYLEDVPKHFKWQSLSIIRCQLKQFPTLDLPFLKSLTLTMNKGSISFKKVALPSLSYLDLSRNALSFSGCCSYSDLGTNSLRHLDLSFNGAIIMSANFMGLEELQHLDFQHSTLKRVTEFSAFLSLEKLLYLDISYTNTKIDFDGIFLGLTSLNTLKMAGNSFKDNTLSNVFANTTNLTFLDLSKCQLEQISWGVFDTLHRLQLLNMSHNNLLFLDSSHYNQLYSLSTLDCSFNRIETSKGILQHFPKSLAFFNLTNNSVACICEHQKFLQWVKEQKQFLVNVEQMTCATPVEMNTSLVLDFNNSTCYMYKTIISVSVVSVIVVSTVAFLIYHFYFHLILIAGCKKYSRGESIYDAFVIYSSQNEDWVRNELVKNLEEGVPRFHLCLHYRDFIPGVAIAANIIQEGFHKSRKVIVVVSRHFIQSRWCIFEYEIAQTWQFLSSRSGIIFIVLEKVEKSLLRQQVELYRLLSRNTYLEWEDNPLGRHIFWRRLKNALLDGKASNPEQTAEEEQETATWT
T1 sequence (Q9JHF9 19-160 partner): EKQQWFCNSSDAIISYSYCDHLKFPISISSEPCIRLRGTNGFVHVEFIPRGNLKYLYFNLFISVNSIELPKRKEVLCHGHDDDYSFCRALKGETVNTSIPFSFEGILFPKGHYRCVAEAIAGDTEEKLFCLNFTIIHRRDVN
Method: The inhibitory effect on TLR4 was determined using the inhibition rate due to the test compound with respect to NO production as a result of addition of lipopolysaccharide (LPS) using murine macrophage cell line RAW264.7. The cells were adjusted to 2×10^6 cells/mL using RPM1-1640 culture medium (phenol red free) supplemented with 10% inactivated bovine fetal serum, and were plated on 384 well plate so as to contain 6×10^4 cells/30 μL per well. Thereafter the cells were cultured at 37° C. overnight under 5% CO2/95% air. The test compound dissolved in DMSO was diluted 200 times using RPM1-1640 culture medium and adjusted so as to form a compound concentration of 500 nM. The prepared test compound 10 μL (final concentration 100 nM) was added to the cells, and LPS (Sigma) and mouse interferon γ (Wako Pure Chemicals) were added in amounts of 10 μL so as to form final concentrations of 1.25 ng/mL and 0.2 ng/mL respectively. The cells were further cultured overnight, and then the nitrite ion (stable NO metabolite) concentration in the culture supernatant was measured as an index of NO production. The nitrite ion concentration was assayed by adding 10 μL of 20 μg/mL 2,3-diamino naphthalene (DAN) dissolved in 0.2N HCl to 20 μL culture supernatant, incubating at room temperature for ten minutes, and then adding 10 μL of 0.5N NaOH, and measuring the fluorescent value at 460 nm (excitation wavelength 355 nm) using an EnVision plate reader (Perkin Elmer). The NO production inhibition rate (%) was calculated using the value without the addition of stimulating agent as control of 100% inhibition, and the value without the addition of the compound as control of 0% inhibition.

| NO production inhibitory effect at 100 nM (% inhibition) (TLR4) | Structure (SMILES) | Pain threshold (weighted value showing pseudo-escape reaction) ([1]; 0.1 mg/kg i.v.) | Pain threshold (weighted value showing pseudo-escape reaction) ([1]; 0.3 mg/kg i.v.) | Pain threshold (weighted value showing pseudo-escape reaction) ([1]; 1 mg/kg i.v.) |
| --- | --- | --- | --- | --- |
| 112 % inhibition | CCOC(=O)C1=CC2(CC[C@H]1S(=O)(=O)[C@H]1CCc3cccc(Cl)c31)O[C@H](COC)[C@@H](COC)O2 [Compound 21, Ethyl (2R,3R,8R)-8-(((1S)-7-chloro-2,3-dihydro-1H-inden-1-yl)sulfonyl)-2,3-bis(methoxymethyl)-1,4-dioxaspiro[4.5]dec-6-ene-7-carboxylate] | 160.0 ± 29.7 gram | 265.0 ± 58.5 gram | 285.0 ± 19.3 gram |
| 107 % inhibition | CCOC(=O)C1=CC2(CC[C@H]1S(=O)(=O)[C@H]1CCc3cc(F)cc(Cl)c31)O[C@H](CO)[C@@H](CO)O2 [Compound 14, Ethyl (2R,3R,8R)-8-(((1S)-7-chloro-5-fluoro-2,3-dihydro-1H-inden-1-yl)sulfonyl)-2,3-bis(hydroxymethyl)-1,4-dioxaspiro[4.5]dec-6-ene-7-carboxylate] | 208.0 ± 33.8 gram | 215.0 ± 21.6 gram | 310.0 ± 33.8 gram |
